Key:
in vitro [1] = conditions: rat, liver microsomes
Description: Metabolic stability in rat liver microsomes assessed as parent compound remaining measured after 15 min

in vitro [2] = conditions: rat, liver microsomes; remark: listed apart in the source
Description: Metabolic stability in rat liver microsomes assessed as parent compound remaining measured after 5 min

[3] = Metabolic stability in rat liver assessed as intrinsic clearance
in vitro [4] = conditions: rat, liver microsomes; remark: listed apart in the source
Description: Metabolic stability in rat liver microsomes assessed as parent compound remaining measured after 60 min

in vitro [5] = conditions: rat, liver microsomes; remark: listed apart in the source
Description: Metabolic stability in rat liver microsomes assessed as parent compound remaining measured after 30 min

DU-145 = test: cells; conditions: Homo sapiens, DU-145, 48 h
Description: Antiproliferative activity against human DU-145 cells assessed as inhibition of cell proliferation incubated for 48 hrs by MTT assay

KYSE-450 = test: cells; conditions: Homo sapiens, KYSE-450, 48 h
Description: Antiproliferative activity against human KYSE-450 cells assessed as inhibition of cell proliferation incubated for 48 hrs by MTT assay

NCI-H1975 = test: cells; conditions: Homo sapiens, NCI-H1975, 48 h
Description: Antiproliferative activity against human NCI-H1975 cells assessed as inhibition of cell proliferation incubated for 48 hrs by MTT assay

MGC-803 = test: cells; conditions: Homo sapiens, MGC-803, 48 h
Description: Antiproliferative activity against human MGC-803 cells assessed as inhibition of cell proliferation incubated for 48 hrs by MTT assay

KYSE-30 = test: cells; conditions: Homo sapiens, KYSE-30, 48 h
Description: Antiproliferative activity against human KYSE-30 cells assessed as inhibition of cell proliferation incubated for 48 hrs by MTT assay

ECa-109 cell line = test: cells; conditions: Homo sapiens, ECa-109, 48 h
Description: Antiproliferative activity against human EC109 cells assessed as inhibition of cell proliferation incubated for 48 hrs by MTT assay

MDA-MB-231 = test: cells; conditions: Homo sapiens, MDA-MB-231, 48 h
Description: Antiproliferative activity against human MDA-MB-231 cells assessed as inhibition of cell proliferation incubated for 48 hrs by MTT assay

NCI-N87 = test: cells; conditions: Homo sapiens, NCI-N87, 48 h
Description: Antiproliferative activity against human NCI-N87 cells assessed as inhibition of cell proliferation incubated for 48 hrs by MTT assay

HCT-116 = test: cells; conditions: Homo sapiens, HCT-116, 48 h
Description: Antiproliferative activity against human HCT-116 cells assessed as inhibition of cell proliferation incubated for 48 hrs by MTT assay

KYSE-150 cell line = test: Antiproliferative activity against human KYSE-150 cell line assessed as inhibition of cell proliferation incubated for 48 hrs by MTT assay; assay type: functional, cell-based; conditions: KYSE-150, 48 h
Huh-7 = test: cells; conditions: Homo sapiens, Huh-7, 48 h
Description: Antiproliferative activity against human Huh-7 cells assessed as inhibition of cell proliferation incubated for 48 hrs by MTT assay

remaining at 0.25 h (in vitro [1]) [%] | remaining at 5 min (in vitro [2]) [%] | CLint scaled [3] [mL/min/kg] | remaining at 1 h (in vitro [4]) [%] | remaining at 0.5 h (in vitro [5]) [%] | IC50 (DU-145) [nM] | IC50 (KYSE-450) [nM] | IC50 (NCI-H1975) [nM] | IC50 (MGC-803) [nM] | IC50 (KYSE-30) [nM] | IC50 (ECa-109 cell line) [nM] | IC50 (MDA-MB-231) [nM] | IC50 (NCI-N87) [nM] | IC50 (HCT-116) [nM] | IC50 (Huh-7) [nM] | SMILES | IC50 (KYSE-150 cell line) [nM]
55.7 | 77.9 | 127 | 11.5 | 33.8 | – | – | – | – | – | – | – | – | – | – | O=C(O)Cc1ccccc1Nc1c(Cl)cccc1Cl [DICLOFENAC] | –
– | – | – | – | – | 720 | 3440 | 1820 | 1280 | 1030 | 3270 | 2120 | 2120 | 1520 | 510 | CNC(=O)c1ccccc1Nc1nc(Nc2ccc(N3CCOCC3)cc2OC)ncc1Cl | 1820
